Reference: patent US20190084909A1, “F[…] COMPOUNDS, COMPOSITIONS AND USES THEREOF” (YISSUM RESEARCH DEVELOPMENT COMPANY OF THE HEBREW …, priority 2015, published 2019)

How the values were obtained:
[1] = system: Male Swiss mice; assay: Forced swimming test (FST), Example 9; assay type: in vivo; details: doses of 3 and 10 mg/kg ip; p<0.05
Method: (§1) Male Swiss mice (25-30 g) originated from the Central Animal Farm of the School of Medicine of Ribeirão Preto (FMRP-USP) were maintained in groups of five animals per box (41×33×17 cm) in a temperature controlled room (24±2° C.) with a 12×12 h light-dark cycle. They received water and food ad libitum throughout the study period.
(§2) Cannabidiol (CBD; THC Pharm, 15-60 mg/kg) and HU-485 (1-10 mg/kg) were administered intraperitoneally (ip). All drugs were dissolved in 2% Tween 80 in sterile saline.
Animals were submitted to 6 min of forced swimming in glass cylinders (height 25 cm, diameter 17 cm) containing 10 cm of water at 23-25° C. Immobility time (characterized by slow movements necessary to avoid drowning) was measured during the last 4-min period. The water was changed after each trial to prevent the influence of alarm substances (Zanelati et al., 2010). Antidepressants typically decrease immobility time in this test.
Results were analyzed by one-way ANOVA followed by Duncan test. Significant level was set at p<0.05.
Animals received an injection of vehicle (V, n=7 animals/group) or HU-485 and were tested in the EPM 20 min later. Immediately after the test they were submitted to the FST for 6 min. Data represents the means±SEM of immobility time in the FST and the % of open arm entries and time spent in these arms of the EPM. * indicates difference from V group.

[2] = system: Male Swiss mice; assay: Pre-pulse inhibition (PPI), impairment induced by amphetamine; assay type: in vivo
Method: as §1, §2
The PPI test was conducted simultaneously in two identical startle response systems (Med Associates, USA). A continuous acoustic signal provided a background white noise level of 65 dB. The pulse consists of a 105 dB white noise burst with a rise/decay of 5 ms and duration of 20 ms. The pre-pulse comprised pure 7000 Hz tones, 10 ms duration, with intensities set at 80, 85, and 90 dB. The setups were daily calibrated to ensure equal sensitivity throughout the experiments. Calibration was performed by adjusting the gain on the load cell amplifier to 150 arbitrary units (AU) at a standard weight appropriated for a 40 g mice. The limits of the load cell were −2047 to +2047 AU. Thirty min after the injection of the tested compounds mice received i.p. injections of amphetamine 10 mg/kg or vehicle. […] The first 10 pulse-alone trials allow for the within-session habituation to the startle stimulus and are not considered for PPI statistical analysis. The test consisted of 64 pseudo-random trials divided into eight different groups presented with an inter-stimulus interval of 30 s, and consisting of pulse alone (105 dB), pre-pulse alone (80, 85, or 90 dB), pre-pulse+pulse with 100 ms interval between pre-pulse and pulse, and no stimulus presented. […] Mean acoustic startle response to pulse-alone (P) trials and each pre-pulse+pulse (PP+P) trial was recorded for each subject. PPI was calculated by expressing the pre-pulse+pulse startle amplitude as a percentage of decrease from pulse-alone startle amplitude, according to the following formula: % PPI=100−[100×(PP+P/P)]. This transformation reduces statistical variability attributable to differences between animals and it is a direct PPI measure. Antipsychotic drugs typically attenuate PPI impairment induced by amphetamine.
(§3) Results were analyzed by one-way ANOVA followed by Duncan test. […]
Animals received a first injection of vehicle (V) or CBD, followed 30 min later, by vehicle (n=9) or amphetamine 10 mg/kg (V+amphetamine group=9 animals). PPI was evaluated at three-stimuli intensity (90, 85 and 80 dB). […]
Animals received a first injection of vehicle (V) or HU-485, followed 30 min later, by vehicle (n=7) or amphetamine 10 mg/kg (V+amphetamine group=7 animals). PPI was evaluated at three-stimuli intensity (90, 85 and 80 dB). […]

[3] = system: Male Swiss mice; assay: Elevated plus maze (EPM), Example 9; assay type: in vivo; details: 10 mg/kg ip
Method: as §1, §2
The wood-made EPM was located in a sound attenuated and temperature controlled room (23° C.), with one incandescent light (40 W) placed 1.3 m away from the maze. The apparatus consisted of two opposing open arms (30×5 cm) perpendicular to two enclosed arms (30×5×40 cm), with a central platform common to all arms (5×5 cm). The apparatus was elevated 50 cm above the ground and an acrylic edge (1 cm) surrounded the open arms to prevent animal falls. […] The test lasted for 5 min and the animal behavior was analyzed with the help of the Anymaze Software (version 4.5, Stoelting), which indicated the position of the animal in the maze and calculated the percentage of entries (Peo) and time spent in the open arms (Pto) and the number of entries in the enclosed arms (EA). […]
as §3

[4] = molecular target: T1, human CB2 (Homo sapiens, UniProt P34972); assay: CB2 receptor binding assay, [3H]CP-55,940, membranes of transfected CHO cells
T1 construct: expressed in transfected cells; host or cells: CHO cells, stably transfected; crude membranes
T1 sequence (P34972 whole entry): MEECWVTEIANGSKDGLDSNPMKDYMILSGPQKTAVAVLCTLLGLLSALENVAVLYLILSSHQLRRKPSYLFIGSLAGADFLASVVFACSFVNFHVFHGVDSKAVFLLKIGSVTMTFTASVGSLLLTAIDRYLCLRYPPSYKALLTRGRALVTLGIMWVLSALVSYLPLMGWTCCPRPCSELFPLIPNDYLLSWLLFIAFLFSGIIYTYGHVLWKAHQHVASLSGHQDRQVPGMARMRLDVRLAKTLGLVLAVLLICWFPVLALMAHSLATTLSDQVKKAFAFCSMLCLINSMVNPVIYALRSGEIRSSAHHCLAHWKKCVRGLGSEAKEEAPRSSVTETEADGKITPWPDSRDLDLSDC
Method: For CB1 receptor binding assay synaptosomal membranes from rat brains were used. Sabra male rats weighing ˜200 g were decapitated and their brains, without the brain stem, were quickly removed. Synaptosomal membranes were prepared from the brains by centrifugation and sucrose density gradient ultracentrifugation after their homogenization. The CB2 receptor binding assays were performed using crude membranes obtained from Chinese hamster ovary (CHO) cells stably transfected with the human CB2 cDNA.
Bound and free radioligand were separated by centrifugation (13,000 rpm for 6 min). Non-specific binding, which was determined with 50 nM unlabelled CP-55,940, was subtracted. Binding experiments were repeated 2-3 times and each point performed in triplicate. The Ki values were determined using the GraphPad Prism program (La Jolla, Calif., USA) and the Cheng-Prusoff equation.

How did the “immobility time in the FST” value [1] turn out when `CCCCCc1cc(O)c(C2C=C(CF)CC[C@H]2C(C)C)c(O)c1` (stereo partly drawn) [HU-485] was run?
The value was “decreased”.

What about the “effect on PPI by itself” value ([2]; 30 mg/kg, without amphetamine) of the same molecule?
Its value is “did not impair PPI”.

What about the “effect on PPI impairment by amphetamine” value ([2]; HU-485 3, 10 and 30 mg/kg, any dose, amphetamine 10 mg/kg) of the same molecule?
Its value is “not attenuated”.

What about the “number of enclosed arm entries” value [3] of the same molecule?
The value was “without changing”.

And the “percentage of time spent in the open arms of the EPM” value ([3]; Duncan p<0.05)?
The value was “increased”.

`CCCCCc1cc(O)c(C2C=C(C)C(F)C[C@H]2C(C)C)c(O)c1` (stereo partly drawn) [HU-487] was tested. Which Ki [4] did it give?
The Ki was 4 to 5 µM.
